Several values for one entry are separate records, joined by “and”; a condition that tells them apart may be missing. Equal entries are not always repeated. Where two headings read alike, the source gives them in different places.
What was measured:
T lymphocytes (CD3+) = assay: Caspase-3 (Phiphilux) apoptosis within gated PBMC subsets; format: cell-based
Text: 3. The detection of apoptosis within different subsets of PBMCs by the combination of mAb-fluorescein tandem staining and the treatment of Phiphilux through flowcytometry. Phiphilux is a substrate of caspase-3, composed of a specific oligo-peptide with its sequence subjected to functional caspase-3 cutting and, at each end of the peptide, is covalently coupled to two identical fluorophores.
Thus, the conclusion is that T lymphocytes are more sensitive to arsenic trioxide according the flow data.

Fibroblasts = assay: DAPI staining of apoptotic bodies in fibroblasts; format: cell-based, human; details: 24 hours
Procedure: Fibroblasts were treated with different concentrations of ATO for 24 hours, cells were fixed and the apoptotic bodies were detected by DAPI staining.

[1] = tested on: FCC1/NH strain of P. falciparum; assay: Malaria inhibition test; format: cell-based
Procedure: FCC1/NH strain (from Hainan, P.R.C.) of P. falciparum was used. The strain of the parasite was cultured by culture media mainly composed of RPMI-1640(GBCO), HEPES (GBCO), NaHCO3, and AB type serum. In a given experiment, Petri dish cultures were diluted with culture medium containing an amount of noninfected type B human erythrocytes to obtain a culture with a final parasitemia of about 1%. The resulting culture was ready for addition to microtitration plates with 96 flat-bottom wells.
The final volume added to each of the 96-well microtitration plates was 200 μl, consisted of 20 μl of complete medium with or without the drug (arsenic trioxide) and 180 μl of the parasitized culture. The microtitration plates were incubated in 5% CO2 for an additional 48 hr, at 37 C. The suspensions were discarded and infection rate of RBC in each well was calculated by microscope examination after Giemsa staining. When drugs interfere, an inhibitory dose of 50% (IC50) and 90% (IC90) can be calculated. A series of experiments is shown below.
The malaria inhibition experiment was performed in 4 lanes for each arsenic trioxide dose, and the initial infectious rate is 1.8%. After 48 hours of incubation, 5000 RBCs in each well were checked by microscope.
Another malaria inhibition experiment was performed in 4 lanes for each arsenic trioxide dose, and the initial infectious rate is 1.5%. After 48 hours of incubation, 5000 RBCs in each well were checked by microscope.
The other malaria inhibition experiment was performed in 12 lanes for each arsenic trioxide dose, and the initial infectious rate is 1.1%. After 48 hours of incubation, 5000 RBCs in each well were checked by microscope.
The other malaria inhibition experiment was performed in 6 lanes for each arsenic trioxide dose, and the initial infectious rate is 1.1%. After 48 hours of incubation, 5000 RBCs in each well were checked by microscope.

[2] = 0.031 uM, exp. 5.2.2, initial infectious rate 1.5%, 4 lanes, 48 hours
[3] = 0.063 uM, exp. 5.2.2, initial infectious rate 1.5%, 4 lanes, 48 hours
[4] = 0.125 uM, exp. 5.2.2, initial infectious rate 1.5%, 4 lanes, 48 hours
[5] = 0.25 uM, exp. 5.2.1, initial infectious rate 1.8%, 4 lanes, 48 hours
[6] = 0.25 uM, exp. 5.2.2, initial infectious rate 1.5%, 4 lanes, 48 hours
[7] = 0.5 uM, exp. 5.2.1, initial infectious rate 1.8%, 4 lanes, 48 hours
[8] = 0.5 uM, exp. 5.2.2, initial infectious rate 1.5%, 4 lanes, 48 hours
[9] = 0.5 uM, exp. 5.2.3, initial infectious rate 1.1%, 12 lanes, 48 hours
[10] = 0.5 uM, exp. 5.2.4, initial infectious rate 1.1%, 6 lanes, 48 hours
[11] = 1.0 uM, exp. 5.2.1, initial infectious rate 1.8%, 4 lanes, 48 hours
[12] = 1.0 uM, exp. 5.2.2, initial infectious rate 1.5%, 4 lanes, 48 hours
[13] = 1.0 uM, exp. 5.2.3, initial infectious rate 1.1%, 12 lanes, 48 hours
[14] = 1.0 uM, exp. 5.2.4, initial infectious rate 1.1%, 6 lanes, 48 hours
[15] = 2.0 uM, exp. 5.2.1, initial infectious rate 1.8%, 4 lanes, 48 hours
[16] = 2.0 uM, exp. 5.2.2, initial infectious rate 1.5%, 4 lanes, 48 hours
[17] = 2.0 uM, exp. 5.2.3, initial infectious rate 1.1%, 12 lanes, 48 hours
[18] = 2.0 uM, exp. 5.2.4, initial infectious rate 1.1%, 6 lanes, 48 hours
[19] = 4.0 uM, exp. 5.2.1, initial infectious rate 1.8%, 4 lanes, 48 hours
[20] = 4.0 uM, exp. 5.2.2, initial infectious rate 1.5%, 4 lanes, 48 hours
[21] = 4.0 uM, exp. 5.2.3, initial infectious rate 1.1%, 12 lanes, 48 hours
[22] = 4.0 uM, exp. 5.2.4, initial infectious rate 1.1%, 6 lanes, 48 hours
[23] = 8.0 uM, exp. 5.2.1, initial infectious rate 1.8%, 4 lanes, 48 hours
[24] = 8.0 uM, exp. 5.2.2, initial infectious rate 1.5%, 4 lanes, 48 hours
[25] = 8.0 uM, exp. 5.2.3, initial infectious rate 1.1%, 12 lanes, 48 hours
[26] = 8.0 uM, exp. 5.2.4, initial infectious rate 1.1%, 6 lanes, 48 hours

arsenic trioxide
Levels of T cell apoptosis (%) after 48 hr treatment (T lymphocytes (CD3+); 1 μM): 36.1% | Levels of T cell apoptosis (%) after 48 hr treatment (T lymphocytes (CD3+); 5 μM): 96% and 96.2% | apoptotic bodies by DAPI staining (Fibroblasts; 1 μM): no obvious apoptosis | apoptotic bodies by DAPI staining (Fibroblasts; 2.5 μM): no obvious apoptosis | apoptotic bodies by DAPI staining (Fibroblasts; 5 μM): obvious apoptotic bodies present | apoptotic bodies by DAPI staining (Fibroblasts; 10 μM): both apoptosis and necrosis | Probability unit (Y) ([1]; 0.031 uM, exp. 5.2.2): 4.1619 | Infection rate (%) [1, 2]: 79.9% | Inhibition rate (%) [1, 2]: 20.1% | Probability unit (Y) ([1]; 0.063 uM, exp. 5.2.2): 4.3659 | Infection rate (%) [1, 3]: 73.7% | Inhibition rate (%) [1, 3]: 26.3% | Probability unit (Y) ([1]; 0.125 uM, exp. 5.2.2): 4.5239 | Infection rate (%) [1, 4]: 68.3% | Inhibition rate (%) [1, 4]: 31.7% | Probability unit (Y) ([1]; 0.25 uM, exp. 5.2.1): 5.1942 | Infection rate (%) [1, 5]: 42.3% | Inhibition rate (%) [1, 5]: 57.7% | Probability unit (Y) ([1]; 0.25 uM, exp. 5.2.2): 4.8743 | Infection rate (%) [1, 6]: 54.9% | Inhibition rate (%) [1, 6]: 45.1% | Probability unit (Y) ([1]; 0.5 uM, exp. 5.2.1): 5.6903 | Infection rate (%) [1, 7]: 24.5% | Inhibition rate (%) [1, 7]: 75.5% | Probability unit (Y) ([1]; 0.5 uM, exp. 5.2.2): 5.1408 | Infection rate (%) [1, 8]: 44.4% | Inhibition rate (%) [1, 8]: 55.6% | Probability unit (Y) ([1]; 0.5 uM, exp. 5.2.3): 5.6008 | Infection rate (%) [1, 9]: 27.4% | Inhibition rate (%) [1, 9]: 72.6% | Probability unit (Y) ([1]; 0.5 uM, exp. 5.2.4): 5.6903 | Infection rate (%) [1, 10]: 24.5% | Inhibition rate (%) [1, 10]: 75.5% | Probability unit (Y) ([1]; 1.0 uM, exp. 5.2.1): 5.8596 | Infection rate (%) [1, 11]: 19.5% | Inhibition rate (%) [1, 11]: 80.5% | Probability unit (Y) ([1]; 1.0 uM, exp. 5.2.2): 5.9192 | Infection rate (%) [1, 12]: 17.9% | Inhibition rate (%) [1, 12]: 82.1% | Probability unit (Y) ([1]; 1.0 uM, exp. 5.2.3): 5.1311 | Infection rate (%) [1, 13]: 12.9% | Inhibition rate (%) [1, 13]: 87.1% | Probability unit (Y) ([1]; 1.0 uM, exp. 5.2.4): 6.0027 | Infection rate (%) [1, 14]: 15.7% | Inhibition rate (%) [1, 14]: 84.3% | Probability unit (Y) ([1]; 2.0 uM, exp. 5.2.1): 6.0939 | Infection rate (%) [1, 15]: 13.7% | Inhibition rate (%) [1, 15]: 86.3% | Probability unit (Y) ([1]; 2.0 uM, exp. 5.2.2): 6.1311 | Infection rate (%) [1, 16]: 12.9% | Inhibition rate (%) [1, 16]: 87.1% | Probability unit (Y) ([1]; 2.0 uM, exp. 5.2.3): 6.3722 | Infection rate (%) [1, 17]: 8.5% | Inhibition rate (%) [1, 17]: 91.5% | Probability unit (Y) ([1]; 2.0 uM, exp. 5.2.4): 6.3408 | Infection rate (%) [1, 18]: 9.0% | Inhibition rate (%) [1, 18]: 91.0% | Probability unit (Y) ([1]; 4.0 uM, exp. 5.2.1): 6.3225 | Infection rate (%) [1, 19]: 9.3% | Inhibition rate (%) [1, 19]: 90.7% | Probability unit (Y) ([1]; 4.0 uM, exp. 5.2.2): 6.2160 | Infection rate (%) [1, 20]: 11.2% | Inhibition rate (%) [1, 20]: 88.8% | Probability unit (Y) ([1]; 4.0 uM, exp. 5.2.3): 6.7866 | Infection rate (%) [1, 21]: 3.6% | Inhibition rate (%) [1, 21]: 96.3% | Probability unit (Y) ([1]; 4.0 uM, exp. 5.2.4): 6.7507 | Infection rate (%) [1, 22]: 4.0% | Inhibition rate (%) [1, 22]: 96.0% | Probability unit (Y) ([1]; 8.0 uM, exp. 5.2.1): 6.4909 | Infection rate (%) [1, 23]: 6.8% | Inhibition rate (%) [1, 23]: 93.2% | Probability unit (Y) ([1]; 8.0 uM, exp. 5.2.2): 6.6352 | Infection rate (%) [1, 24]: 5.1% | Inhibition rate (%) [1, 24]: 94.9% | Probability unit (Y) ([1]; 8.0 uM, exp. 5.2.3): 7.0537 | Infection rate (%) [1, 25]: 2.0% | Inhibition rate (%) [1, 25]: 98.0% | Probability unit (Y) ([1]; 8.0 uM, exp. 5.2.4): 7.0749 | Infection rate (%) [1, 26]: 1.9% | Inhibition rate (%) [1, 26]: 98.1% | IC50 ([1]; exp. 5.2.1, initial infectious rate 1.8%, 48 hours, read-out: IC50): 100 nM | IC90 ([1]; exp. 5.2.1, initial infectious rate 1.8%, 48 hours, read-out: IC90): 3680 nM | IC50 ([1]; exp. 5.2.1, 95% confidence limit 11.43˜34.2 ng/ml): 0.01978 µg/mL | IC90 ([1]; exp. 5.2.1, 95% confidence limit 420.84˜1259.53 ng/ml): 0.72805 µg/mL | IC50 ([1]; exp. 5.2.2, initial infectious rate 1.5%, 48 hours, read-out: IC50): 250 nM | IC90 ([1]; exp. 5.2.2, initial infectious rate 1.5%, 48 hours, read-out: IC90): 3730 nM | IC50 ([1]; exp. 5.2.2, 95% confidence limit 28.00˜86.73 ng/ml): 0.04928 µg/mL | IC90 ([1]; exp. 5.2.2, 95% confidence limit 419.28˜1298.77 ng/ml): 0.73794 µg/mL | IC50 ([1]; exp. 5.2.3, initial infectious rate 1.1%, 12 lanes, 48 hours, read-out: IC50): 130 nM | IC90 ([1]; exp. 5.2.3, initial infectious rate 1.1%, 12 lanes, 48 hours, read-out: IC90): 960 nM | IC50 ([1]; exp. 5.2.3, 95% confidence limit 18.91˜34.9 ng/ml): 0.02572 µg/mL | IC90 ([1]; exp. 5.2.3, 95% confidence limit 139.65˜258.3 ng/ml): 0.18993 µg/mL | IC90 ([1]; exp. 5.2.4, initial infectious rate 1.1%, 6 lanes, 48 hours, read-out: IC90): 2090 nM | IC50 ([1]; exp. 5.2.4, 95% confidence limit 40.32˜99.4 ng/ml): 0.06331 µg/mL | IC90 ([1]; exp. 5.2.4, 95% confidence limit printed 263.06˜258.30 ng/ml): 0.41348 µg/mL

— US20060292243A1, “Arsenic compounds for the treatment of the arsenic-sensitive blast-cell related diseases” (priority 2005, published 2006)
